PubChem BioAssay (NCI)
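How tested: cells in 96-well plates exposed to compound for 48 hours at five concentrations. GI50: concentration for 50% inhibition of growth. Definition used: TGI = concentration required for complete inhibition of growth.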

Experiments:
Assay in all cases: NCI tumour cell line growth inhibition, 48 h
A549 NSCLC = test system: A549 NSCLC
KM12 colon = test system: KM12 colon
UACC-257 melanoma = test system: UACC-257 melanoma
OVCAR-8 ovarian = test system: OVCAR-8 ovarian
786-0 renal = test system: 786-0 renal
OVCAR-3 ovarian = test system: OVCAR-3 ovarian
HCT-116 colon = test system: HCT-116 colon
HS 578T breast = test system: HS 578T breast
RXF 393 renal = test system: RXF 393 renal
SF-539 CNS = test system: SF-539 CNS
IGROV1 ovarian = test system: IGROV1 ovarian
K-562 leukemia = test system: K-562 leukemia
M14 melanoma = test system: M14 melanoma
HT29 colon = test system: HT29 colon
T-47D breast = test system: T-47D breast
HL-60(TB) leukemia = test system: HL-60(TB) leukemia
NCI/ADR-RES ovarian = test system: NCI/ADR-RES ovarian
SF-268 CNS = test system: SF-268 CNS
PC-3 prostate = test system: PC-3 prostate
NCI-H522 lung = test system: NCI-H522 lung
HOP-62 NSCLC = test system: HOP-62 NSCLC
UO-31 renal = test system: UO-31 renal
NCI-H226 lung = test system: NCI-H226 lung
RPMI-8226 leukemia = test system: RPMI-8226 leukemia
MOLT-4 leukemia = test system: MOLT-4 leukemia
BT-549 breast = test system: BT-549 breast
SW-620 colon = test system: SW-620 colon
CCRF-CEM leukemia = test system: CCRF-CEM leukemia
U251 CNS = test system: U251 CNS
LOX IMVI melanoma = test system: LOX IMVI melanoma
SK-MEL-5 melanoma = test system: SK-MEL-5 melanoma
SF-295 CNS = test system: SF-295 CNS
OVCAR-4 ovarian = test system: OVCAR-4 ovarian
SK-MEL-28 melanoma = test system: SK-MEL-28 melanoma
COLO 205 colon = test system: COLO 205 colon
SNB-19 CNS = test system: SNB-19 CNS
MDA-MB-435 = test system: MDA-MB-435
TK-10 renal = test system: TK-10 renal
ACHN renal = test system: ACHN renal
MCF7 breast = test system: MCF7 breast
NCI-H23 lung = test system: NCI-H23 lung
SN12C renal = test system: SN12C renal
MALME-3M melanoma = test system: MALME-3M melanoma
UACC-62 melanoma = test system: UACC-62 melanoma
A498 renal = test system: A498 renal
SNB-75 CNS = test system: SNB-75 CNS
HCC-2998 colon = test system: HCC-2998 colon
OVCAR-5 ovarian = test system: OVCAR-5 ovarian
MDA-MB-231 breast = test system: MDA-MB-231 breast
SK-MEL-2 melanoma = test system: SK-MEL-2 melanoma
CAKI-1 renal = test system: CAKI-1 renal
DU-145 prostate = test system: DU-145 prostate
SK-OV-3 ovarian = test system: SK-OV-3 ovarian
SR leukemia = test system: SR leukemia
HOP-92 NSCLC = test system: HOP-92 NSCLC
HCT-15 colon = test system: HCT-15 colon
EKVX NSCLC = test system: EKVX NSCLC
NCI-H460 lung = test system: NCI-H460 lung

CC1(C)CN(c2cc(C(F)(F)F)cc3cncn23)CCC12NC(=O)NC2=O (stereo unspecified)
GI50 (A549 NSCLC): 38 µM | TGI (A549 NSCLC): > 100 µM | GI50 (KM12 colon): 45.1 µM | TGI (KM12 colon): > 100 µM | GI50 (UACC-257 melanoma): 52.7 µM | TGI (UACC-257 melanoma): > 100 µM | GI50 (OVCAR-8 ovarian): 36 µM | TGI (OVCAR-8 ovarian): > 100 µM | GI50 (786-0 renal): 32.8 µM | TGI (786-0 renal): > 100 µM | GI50 (OVCAR-3 ovarian): 38.5 µM | TGI (OVCAR-3 ovarian): > 100 µM | GI50 (HCT-116 colon): 26.3 µM | TGI (HCT-116 colon): > 100 µM | GI50 (HS 578T breast): 21.1 µM | TGI (HS 578T breast): 90.1 µM | GI50 (RXF 393 renal): 17.5 µM | TGI (RXF 393 renal): 61.1 µM | GI50 (SF-539 CNS): 42.5 µM | TGI (SF-539 CNS): > 100 µM | GI50 (IGROV1 ovarian): 30.5 µM | TGI (IGROV1 ovarian): > 100 µM | GI50 (K-562 leukemia): 40.9 µM | TGI (K-562 leukemia): > 100 µM | GI50 (M14 melanoma): 33.4 µM | TGI (M14 melanoma): > 100 µM | GI50 (HT29 colon): 50.9 µM | TGI (HT29 colon): > 100 µM | GI50 (T-47D breast): 21.4 µM | TGI (T-47D breast): > 100 µM | GI50 (HL-60(TB) leukemia): 22 µM | TGI (HL-60(TB) leukemia): 48.9 µM | GI50 (NCI/ADR-RES ovarian): 67.5 µM | TGI (NCI/ADR-RES ovarian): > 100 µM | GI50 (SF-268 CNS): 38.7 µM | TGI (SF-268 CNS): > 100 µM | GI50 (PC-3 prostate): 24.4 µM | TGI (PC-3 prostate): > 100 µM | GI50 (NCI-H522 lung): 28.9 µM | TGI (NCI-H522 lung): > 100 µM | GI50 (HOP-62 NSCLC): 40.3 µM | TGI (HOP-62 NSCLC): > 100 µM | GI50 (UO-31 renal): 21.1 µM | TGI (UO-31 renal): 83.7 µM | GI50 (NCI-H226 lung): 33.5 µM | TGI (NCI-H226 lung): > 100 µM | GI50 (RPMI-8226 leukemia): 30.5 µM | TGI (RPMI-8226 leukemia): > 100 µM | GI50 (MOLT-4 leukemia): 24.3 µM | TGI (MOLT-4 leukemia): > 100 µM | GI50 (BT-549 breast): 23.2 µM | TGI (BT-549 breast): > 100 µM | GI50 (SW-620 colon): 52.6 µM | TGI (SW-620 colon): > 100 µM | GI50 (CCRF-CEM leukemia): 35.6 µM | TGI (CCRF-CEM leukemia): > 100 µM | GI50 (U251 CNS): 37.5 µM | TGI (U251 CNS): > 100 µM | GI50 (LOX IMVI melanoma): 30.1 µM | TGI (LOX IMVI melanoma): > 100 µM | GI50 (SK-MEL-5 melanoma): 18.1 µM | TGI (SK-MEL-5 melanoma): 35.4 µM | GI50 (SF-295 CNS): 30.3 µM | TGI (SF-295 CNS): > 100 µM | GI50 (OVCAR-4 ovarian): 31.6 µM | TGI (OVCAR-4 ovarian): > 100 µM | GI50 (SK-MEL-28 melanoma): 49.9 µM | TGI (SK-MEL-28 melanoma): > 100 µM | GI50 (COLO 205 colon): 41.9 µM | TGI (COLO 205 colon): > 100 µM | GI50 (SNB-19 CNS): 46.8 µM | TGI (SNB-19 CNS): > 100 µM | GI50 (MDA-MB-435): 42.2 µM | TGI (MDA-MB-435): > 100 µM | GI50 (TK-10 renal): 37.8 µM | TGI (TK-10 renal): > 100 µM | GI50 (ACHN renal): 33.7 µM | TGI (ACHN renal): > 100 µM | GI50 (MCF7 breast): 24.2 µM | TGI (MCF7 breast): > 100 µM | GI50 (NCI-H23 lung): 35.5 µM | TGI (NCI-H23 lung): > 100 µM | GI50 (SN12C renal): 36.2 µM | TGI (SN12C renal): > 100 µM | GI50 (MALME-3M melanoma): 42.3 µM | TGI (MALME-3M melanoma): > 100 µM | GI50 (UACC-62 melanoma): 27.7 µM | TGI (UACC-62 melanoma): > 100 µM | GI50 (A498 renal): 16.8 µM | TGI (A498 renal): 55.3 µM | GI50 (SNB-75 CNS): 16.3 µM | TGI (SNB-75 CNS): 68.5 µM | GI50 (HCC-2998 colon): 72.5 µM | TGI (HCC-2998 colon): > 100 µM | GI50 (OVCAR-5 ovarian): 66.1 µM | TGI (OVCAR-5 ovarian): > 100 µM | GI50 (MDA-MB-231 breast): 29.2 µM | TGI (MDA-MB-231 breast): > 100 µM | GI50 (SK-MEL-2 melanoma): 32.4 µM | TGI (SK-MEL-2 melanoma): > 100 µM | GI50 (CAKI-1 renal): 19.2 µM | TGI (CAKI-1 renal): 92 µM | GI50 (DU-145 prostate): 56.2 µM | TGI (DU-145 prostate): > 100 µM | GI50 (SK-OV-3 ovarian): 36.9 µM | TGI (SK-OV-3 ovarian): > 100 µM | GI50 (SR leukemia): 48.5 µM | TGI (SR leukemia): > 100 µM | GI50 (HOP-92 NSCLC): 20.1 µM | TGI (HOP-92 NSCLC): 86.5 µM | GI50 (HCT-15 colon): 32.4 µM | TGI (HCT-15 colon): > 100 µM | GI50 (EKVX NSCLC): 4.33 µM | TGI (EKVX NSCLC): 40.6 µM | GI50 (NCI-H460 lung): 40.5 µM | TGI (NCI-H460 lung): > 100 µM
